According to patent US20230106583A1, “HETEROARYL COMPOUNDS” (Vivace Therapeutics, Inc., priority 2019, published 2023):

System: HEK293T cells stably transfected with 8XTBD luciferase reporter and pRLTK
Assay: YAP Reporter Assay (8XTBD-driven firefly luciferase)
Type: cell-based
Details: Homo sapiens, HEK-293T; HEK293T 8XTBD luciferase reporter; 24-hr incubation with compounds; top concentration 3 μM, 10 points
Description: HEK293T cells stably transfected with 8XTBD luciferase reporter and pRLTK in 384-well plates were treated with the test compounds, starting from 3 μM (final concentration in assay plate), 1:3 dilution, and 10 points in quadruplicates. Post 24-hr incubation with compounds at 37° C. and 5% CO2, cells were lysed and 8XTBD-driven firefly luciferase and control TK-driven renilla luciferase activities were measured using Promega Dual-Luciferase Reporter Assay System.
Reagents: The reagents used for this study are: DMEM: Invitrogen #11960077, Dual-Glo Luciferase Assay System: Promega-E2980, Puromycin Dihydrochloride: Invitrogen-A1113803, 384-well plate: PerkinElmer-6007480, L-GLUTAMINE: Invitrogen-25030164, Hygromycin B: Invitrogen-10687010, and Penicillin-Streptomycin: Merk-TMS-AB2-C
Media: The media used for this assay were: Culture Medium: DMEM+1 ug/mL puromycin+200 ug/mL hygromycin (with 10% FBS+1 mM L-glutamine); and Assay Medium: DMEM (with 10% FBS+1 mM L-glutamine+1×P/S).
Cell Plating: The appropriate media was warmed at 37° C. by water bath: Culture Medium, Assay Medium, 1*D-PBS, 0.05% trypsin-EDTA. The cells were trypsinized after removing all media, then washed with 1*sterile D-PBS and then with 2 ml 0.05% trypsin-EDTA. The cells were then incubated at RT for one minute. Then 10 ml/75 cm2 flask Assay Medium was added to each flask. Using a 10 ml pipette, the cells were then gently resuspended in the media, until the clumps completely disappeared. The cells were then transferred into 50 ml centrifuge tubes and were centrifuged at 800 rpm for 5 mins. The medium was removed and the cells were resuspended with Assay Medium. An aliquot of cells was used to count the cell density (cells/ml). The cell suspension was then diluted with Assay Medium to a concentration of 6×10^4 cells/ml. 50 ul cells suspension was then plated to 384-well plate (PerkinElmer-6007480), 3×10^3 cells/well and the cells were incubated in an incubator at 37° C., 5% CO2.
Compound Treatment: In the afternoon (incubation of the plate with 3-4 hrs), the test compounds were added by Echo, starting from 3 uM (final concentration in the assay plate), 1:3 dilution, 10 points, quadruplicates. The plate was placed at 37° C., 5% CO2 incubator for 24 hrs.
Detection: The Dual-Glo Luciferase Reagent was prepared by transferring the contents of one bottle of Dual-Glo Luciferase Buffer to one bottle of Dual-Glo Luciferase Substrate to create the Dual-Glo Luciferase Reagent. Mixing was performed by inversion until the substrate was thoroughly dissolved. After mixing, the reagent was aliquoted into 15 ml tubes. In the afternoon (24 hrs post compound treatment), the DMEM+medium in the 384 well plates were aspirated by Microplate Washer.
Measuring firefly luciferase activity: 20 ul Dual-Glo Luciferase Reagent was added to the 384-well plates. The plates were protected from light to prevent interference with the assay. The plates were shaken for 1 min followed centrifuging plates at 1000 rpm for 30 seconds. After waiting at least 10 minutes, the firefly luminescence was measured by Envision.
Measuring renilla luciferase activity: 20 ul Stop-Glo Reagent was added to the 384-well plates. The plates were shaken for 1 min and then centrifuged at 1000 rpm for 30 seconds. After waiting at least 10 minutes, the renilla luminescence was measured by Envision.
Compound IC50 and maximum inhibition on the firefly luciferase and renilla luciferase activities were reported separately.

Q: For CCN(C#N)CCc1nnc(-c2nccnc2Nc2ccc(C(F)(F)F)cc2)o1 [Compound 2, ethyl-[2-[5-[3-[4-(trifluoromethyl)anilino]pyrazin-2-yl]-1,3,4-oxadiazol-2-yl]ethyl]cyanamide], which IC50 is on record?
A: The IC50 was ≤ 100 nM.

Q: For CNCc1nnc(-c2cccnc2Nc2ccc(C(F)(F)F)cc2)o1 [Compound 9, 3-[5-(methylaminomethyl)-1,3,4-oxadiazol-2-yl]-N-[4-(trifluoromethyl)phenyl]pyridin-2-amine], which IC50 is on record?
A: Its IC50 is 100 to 1000 nM.

Q: C[C@]1(c2nnc(-c3cccnc3Nc3ccc(C(F)(F)F)cc3)o2)CCNC1=O [Compound 12, (R)-3-methyl-3-(5-(2-((4-(trifluoromethyl)phenyl)amino)pyridin-3-yl)-1,3,4-oxadiazol-2-yl)pyrrolidin-2-one] was tested. Which IC50 did it give?
A: The IC50 was ≤ 100 nM.

Q: How did the IC50 turn out when C[C@]1(c2nnc(-c3cccnc3Nc3ccc(C(F)(F)F)cc3)o2)CCCNC1=O [Compound 40, (R)-3-methyl-3-(5-(2-((4-(trifluoromethyl)phenyl)amino)pyridin-3-yl)-1,3,4-oxadiazol-2-yl)piperidin-2-one] was run?
A: Its IC50 is 100 to 1000 nM.

Q: How did the IC50 turn out when CC[C@@]1(c2nnc(-c3cccnc3Nc3ccc(C(F)(F)F)cc3)o2)CCNC1=O [Compound 34, (3S)-3-Ethyl-3-[5-[2-[4-(trifluoromethyl)anilino]-3-pyridyl]-1,3,4-oxadiazol-2-yl]pyrrolidin-2-one] was run?
A: Its IC50 is ≤ 100 nM.

Q: With C[C@@]1(c2nnc(-c3cccnc3Nc3ccc(S(F)(F)(F)(F)F)cc3)o2)CCNC1=O [Compound 36, (3S)-3-methyl-3-[5-[2-[4-(pentafluoro-λ^6-sulfanyl)anilino]-3-pyridyl]-1,3,4-oxadiazol-2-yl]pyrrolidin-2-one] as the compound, how does the IC50 read?
A: The IC50 was ≤ 100 nM.

Q: Which IC50 does the source give for CCN(C#N)Cc1nnc(-c2nccnc2Nc2ccc(C(F)(F)F)cc2)o1 [Compound 44, ethyl-[[5-[3-[4-(trifluoromethyl)anilino]pyrazin-2-yl]-1,3,4-oxadiazol-2-yl]methyl]cyanamide] here?
A: The IC50 was ≤ 100 nM.

Q: With C[C@@]1(c2nnc(-c3cccnc3Nc3ccc(C(F)(F)F)cc3)o2)CCNC1=O [Compound 13, (S)-3-methyl-3-(5-(2-((4-(trifluoromethyl)phenyl)amino)pyridin-3-yl)-1,3,4-oxadiazol-2-yl)pyrrolidin-2-one] as the compound, how does the IC50 read?
A: Its IC50 is ≤ 100 nM.

Q: With CC[C@@]1(c2nnc(-c3cccnc3Nc3ccc(S(F)(F)(F)(F)F)cc3)o2)CCNC1=O [Compound 24, (3S)-3-ethyl-3-[5-[2-[4-(pentafluoro-λ^6-sulfanyl)anilino]-3-pyridyl]-1,3,4-oxadiazol-2-yl]pyrrolidin-2-one] as the compound, how does the IC50 read?
A: The IC50 was ≤ 100 nM.

Q: For CNCc1nnc(-c2nccnc2Nc2ccc(C(F)(F)F)cc2)o1 [Compound 48, 3-[5-(methylaminomethyl)-1,3,4-oxadiazol-2-yl]-N-[4-(trifluoromethyl)phenyl]pyrazin-2-amine], which IC50 is on record?
A: The IC50 was 1000 to 3000 nM.

Q: For C[C@]1(n2nnc(-c3cccnc3Nc3ccc(S(F)(F)(F)(F)F)cc3)n2)CCNC1=O [Compound 28, (3S)-3-methyl-3-[5-[2-[4-(pentafluoro-λ^6-sulfanyl)anilino]-3-pyridyl]tetrazol-2-yl]pyrrolidin-2-one], which IC50 is on record?
A: The IC50 was ≤ 100 nM.
